This passage reports Km results from publication PMC3750315, “The production and characterization of a new active lipase from Acremonium alcalophilum using a plant bioreactor” (Biotechnology for Biofuels, 2013).

T1 sequence (P0CT91 23-416): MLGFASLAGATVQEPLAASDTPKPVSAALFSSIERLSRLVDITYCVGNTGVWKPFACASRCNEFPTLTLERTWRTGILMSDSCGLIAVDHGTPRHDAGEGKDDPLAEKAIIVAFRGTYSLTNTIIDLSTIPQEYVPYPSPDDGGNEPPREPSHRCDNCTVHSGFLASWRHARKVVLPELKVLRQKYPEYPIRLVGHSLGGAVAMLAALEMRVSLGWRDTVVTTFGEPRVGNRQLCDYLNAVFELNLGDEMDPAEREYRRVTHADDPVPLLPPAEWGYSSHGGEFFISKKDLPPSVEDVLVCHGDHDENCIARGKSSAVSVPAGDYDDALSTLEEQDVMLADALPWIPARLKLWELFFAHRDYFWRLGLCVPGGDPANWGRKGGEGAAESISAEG

The test has as its target T1, LipA (Sodiomyces alcalophilus, UniProt P0CT91).
T1 construct: Transient in Nicotiana benthamiana; vector adds Pr1b signal peptide, Xpress tag, C-myc tag, KDEL (tags kept); N-glycosylated, about 56 kDa on SDS-PAGE
The test is described as follows: p-nitrophenol release, […] nm. Format: biochemical. The settings on record: 100 mM phosphate buffer pH 8.0, 40°C.
The Km is the concentration of substrate that gives half-maximal velocity. Take `CC(=O)Oc1ccc([N+](=O)[O-])cc1` [pNP acetate (C2)]: the Michaelis-Menten constant (Km) was determined as 150 µM.

As to `CCCC(=O)Oc1ccc([N+](=O)[O-])cc1` [pNP butyrate (C4)], the Michaelis constant (Km) worked out at 160 µM.

On to `CCCCCCCC(=O)Oc1ccc([N+](=O)[O-])cc1` [pNP caprylate (C8)], for which the Km came out at 100 µM.

Consider `CCCCCCCCCCCCCC(=O)Oc1ccc([N+](=O)[O-])cc1` [pNP myristate (C14)], for which the Michaelis-Menten constant (Km) is 70 µM.

Regarding `CCCCCCCCCCCCCCCC(=O)Oc1ccc([N+](=O)[O-])cc1` [pNP palmitate (C16)], the Km is 100 µM.
